# US20240366728A1, “Treatment of Diabetes Mellitus” (Carmot Therapeutics Inc., priority 2023, published 2024)
# Where “and” joins values, the source holds several entries; their conditions need not be identical. Equal values may be shown once.
# Key:
# [1] = system: DIO C57BL/6J mice; assay: chronic daily SC dosing in DIO mice (body weight, food, glucose, insulin, tissue weights); type: in vivo, mouse
# Procedure: Body weight and food consumption were measured daily (FIGS. 8 and 9). On the last day of the study mice were fasted for 5 hours. At the end of the fasting period, glucose was measured (FIG. 6) and plasma was collected for insulin analysis. Plasma insulin was measured using an MSD kit. Fasting glucose and insulin were used to calculate the log (HOMA-IR) (FIG. 7).
# Body weight was measured daily (FIG. 11). […] On the last day of the study, glucose was measured, and plasma was collected for insulin analysis. Plasma insulin was measured using an MSD kit. Glucose and insulin were used to calculate log (HOMA-IR) (FIG. 10).
# DIO mice were acclimated to daily weighing and handling for approximately 1 week until their weight had stabilized. Mice were injected subcutaneously once daily with the indicated dose of peptide, or vehicle, based on current body weight. Injections were performed six hours before the dark cycle started to approximate reaching Tmax when the dark cycle started. Where indicated, 24-hour food consumption studies were performed as described above. Body weight as a percentage of initial weight was calculated daily by dividing the daily body weight by the body weight taken before the first dose of peptide, multiplied by 100%. Blood glucose was determined at study termination, and blood was collected to quantify plasma insulin concentrations. Mice were sedated by isoflurane and euthanized by decapitation. […] Plasma was stored at −80° C. until analysis. Subcutaneous and inguinal fat and the liver were removed and weighed.
# DIO and ob/ob mice were acclimated to daily weighing and handling for approximately one week until weight had stabilized. […] Injections were performed six hours before the start of the dark cycle to approximate reaching Tmax when the dark cycle started. […] In both the DIO and ob/ob weight loss studies, body weight as a percentage of initial weight was calculated daily by dividing the daily body weight by the body weight taken before the first dose of peptide, multiplied by 100%. Blood glucose was determined at study termination, and blood was collected to quantify plasma insulin concentrations. Mice were sedated by isoflurane and euthanized by decapitation. […] Subcutaneous and inguinal fat and the liver were removed and weighed.
# [2] = system: lean participants and participants with overweight/obesity; assay: Phase 1 first-in-human SAD/MAD study: safety and tolerability; type: in vivo; details: for safety and tolerability (in words): no up-titration
# Text: This was a randomized, double-blind, placebo-controlled, dose escalation first-in-human (FIH) conducted from December 2018 to January 2020 at a study center in Victoria, Australia in accordance with principles of the Declaration of Helsinki (Ethical Principles for Medical Research Involving Human Subjects), and the NHMRC National Statement on Ethical Conduct in Human Research 2007 (updated 2018). (Registered on the Australian New Zealand Clinical Trials Registry [ANZCTR] under the identifier: ACTRN12618001988246).
# Daily doses were given on Day 2 to Day 14. Cohort M1 was dosed with the highest dose level, determined based on the safety and PK data from the preceding Part 1 (SAD), and doses were decreased sequentially for Cohorts M2 and M3 (FIG. 46B).
# Following study drug administration, Part 1 (SAD) participants underwent safety and other assessments on Day 3 and Day 8 (±1 day, outpatient) and were followed for at least 30 days after the last administered dose of study drug. Part 2 (MAD) participants underwent safety and other assessments and discharged in the absence of clinically significant safety signals, following completion of all Day 16 assessments. All participants were followed for at least 30 days after the last administered dose of study drug. Participants were follow-up for safety and other assessments on Day 21 (±2 days, outpatient) and Day 44 (±3 days, teleconference).
# The primary endpoints were the incidence, nature and severity of AEs, safety laboratory analytes, vital signs, electrocardiograms (ECGs), and incidence of events of special interest (AESI).
# Adverse events were coded using the Medical Dictionary for Regulatory Activities (MedDRAR Version 21.1). The number of participants experiencing treatment-emergent AEs (TEAEs) and number of individual TEAEs are summarized by treatment, SOC, and PT. TEAEs are also summarized by severity and by relationship to study drug. AESIs are listed and summarized by treatment group. Listings of AEs leading to discontinuation of the study, SAEs and deaths, are provided as applicable.
compound,measurement,setting,value
CCCCCCCCCCCCCCCC(=O)N[C@@H](CCC(=O)NCCCC[C@H](NC(=O)[C@H](CO)NC(=O)[C@@H]1CCCN1C(=O)[C@@H]1CCCN1C(=O)[C@@H]1CCCN1C(=O)[C@H](C)NC(=O)CNC(=O)[C@H](CO)NC(=O)[C@H](CO)NC(=O)[C@@H]1CCCN1C(=O)CNC(=O)CNC(=O)[C@H](C)NC(=O)[C@H](CC(C)C)NC(=O)[C@H](CC(C)C)NC(=O)[C@H](Cc1c[nH]c2ccccc12)NC(=O)[C@H](CC(N)=O)NC(=O)[C@@H](NC(=O)[C@H](Cc1ccccc1)NC(=O)[C@H](CCC(=O)O)NC(=O)C(C)(C)NC(=O)[C@H](C)NC(=O)[C@H](C)NC(=O)[C@H](CCC(N)=O)NC(=O)[C@H](CCCCN)NC(=O)[C@H](CC(=O)O)NC(=O)[C@H](CC(C)C)NC(=O)[C@H](Cc1ccc(O)cc1)NC(=O)[C@@H](NC(=O)[C@H](CO)NC(=O)[C@H](Cc1ccc(O)cc1)NC(=O)[C@H](CC(=O)O)NC(=O)[C@H](CO)NC(=O)[C@@H](NC(=O)[C@H](Cc1ccccc1)NC(=O)[C@@H](NC(=O)CNC(=O)[C@H](CCC(=O)O)NC(=O)CSCC(=O)NCCN1C(=O)CSC1=O)[C@@H](C)O)[C@@H](C)O)[C@@H](C)CC)C(C)C)C(N)=O)C(=O)O [CT-859],adipose tissue weight vs liraglutide (in words),[1],decreases adipose tissue weight more than liraglutide
same,body weight vs liraglutide (in words),[1]; 20 and 200 nmol/kg,decreases body weight more than liraglutide at non-GIPR and GIPR engaging doses
same,"body weight decreased compared to liraglutide, end of study","[1]; DIO mice, 20 nmol/kg, 19 days",8%
same,"body weight decreased compared to vehicle, end of study","[1]; DIO mice, 20 nmol/kg, 19 days",20%
same,fasting glucose (in words),"[1]; DIO mice, 20 nmol/kg, 19 days",lowered fasting glucose more than liraglutide
same,inguinal adipose weight lower than vehicle,"[1]; DIO mice, 20 nmol/kg, 19 days",39%
same,cumulative food intake vs liraglutide (in words),"[1]; DIO mice, 20 nmol/kg, 20 days",without significant difference in cumulative food intake
same,fasting GLUC,"[1]; DIO mice, 20 nmol/kg, 20 days",146.5 mg/dL
same,weight loss (WL),"[1]; DIO mice, 20 nmol/kg, 20 days",−16.5%
same,insulin resistance log (HOMA-IR),"[1]; DIO mice, 20 nmol/kg, 20 days, fasted",0.74
same,adipose weight (in words),"[1]; DIO mice, 200 nmol/kg, 19 days",decreased inguinal and epididymal adipose weight more than liraglutide
same,"body weight decreased compared to liraglutide, end of study","[1]; DIO mice, 200 nmol/kg, 19 days",14%
same,"body weight decreased compared to vehicle, end of study","[1]; DIO mice, 200 nmol/kg, 19 days",33% and ~35%
same,fed glucose levels (in words),"[1]; DIO mice, 200 nmol/kg, 19 days",decreased fed glucose levels more than the vehicle
same,nonfasted log (HOMA-IR),"[1]; DIO mice, 200 nmol/kg, 20 days",1.17
same,weight loss (WL),"[1]; DIO mice, 200 nmol/kg, 20 days",−30.1%
same,food consumption lowered compared to liraglutide,"[1]; DIO mice, 200 nmol/kg, after 7 days of dosing",39%
same,food intake,"[1]; DIO mice, 200 nmol/kg, day 7",1.2 g
same,food intake,"[1]; DIO mice, 200 nmol/kg, day 14",1.7 g
same,additional weight loss over liraglutide,"[1]; DIO mice, GIPR-engaging dose",10%
CCCCCCCCCCCCCCCC(=O)N[C@@H](CCC(=O)NCCCC[C@H](NC(=O)[C@H](CO)NC(=O)[C@@H]1CCCN1C(=O)[C@@H]1CCCN1C(=O)[C@@H]1CCCN1C(=O)[C@H](C)NC(=O)CNC(=O)[C@H](CO)NC(=O)[C@H](CO)NC(=O)[C@@H]1CCCN1C(=O)CNC(=O)CNC(=O)[C@H](C)NC(=O)[C@H](CC(C)C)NC(=O)[C@H](CC(C)C)NC(=O)[C@H](Cc1c[nH]c2ccccc12)NC(=O)[C@H](CC(N)=O)NC(=O)[C@@H](NC(=O)[C@H](Cc1ccccc1)NC(=O)[C@H](CCC(=O)O)NC(=O)C(C)(C)NC(=O)[C@H](C)NC(=O)[C@H](C)NC(=O)[C@H](CCC(N)=O)NC(=O)[C@H](CCCCN)NC(=O)[C@H](CC(=O)O)NC(=O)[C@H](CC(C)C)NC(=O)[C@H](Cc1ccc(O)cc1)NC(=O)[C@@H](NC(=O)[C@H](CO)NC(=O)[C@H](Cc1ccc(O)cc1)NC(=O)[C@H](CC(=O)O)NC(=O)[C@H](CO)NC(=O)[C@@H](NC(=O)[C@H](Cc1ccccc1)NC(=O)[C@@H](NC(=O)CNC(=O)[C@H](CCC(=O)O)NC(=O)CSCC(=O)NCCN1CCCCC1=O)[C@@H](C)O)[C@@H](C)O)[C@@H](C)CC)C(C)C)C(N)=O)C(=O)O [CT-868],participants reporting only nausea,[2]; MAD 0.75 mg,2/6
same,participants with abdominal pain,[2]; MAD 1.5 mg,1/6
same,participants with constipation,[2]; MAD 1.5 mg,4/6
same,participants with diarrhea,[2]; MAD 1.5 mg,1/6
same,participants with gastrointestinal symptoms,[2]; MAD 1.5 mg,4/6
same,participants with nausea,[2]; MAD 1.5 mg,2/6
same,participants with vomiting,[2]; MAD 1.5 mg,2/6
same,mild to moderate gastrointestinal symptoms (in words),[2]; MAD 5.0 mg,reported by all six participants
same,drug withdrawal due to drug-related TEAEs (in words),"[2]; MAD 5.0 mg, mild nausea and vomiting",One participant
same,maximum tolerated single dose,[2]; SAD,7.5 mg
same,participants with drug-related TEAEs,"[2]; SAD 7.5 mg, two events of nausea and one of diarrhea",50%
same,participants with gastrointestinal TEAEs,"[2]; SAD 11.0 mg, twelve events, all drug-related",100%
same,SAEs and drug-induced hypoglycemia (in words),[2]; SAD and MAD phases,no serious adverse events (SAEs) or drug-induced hypoglycemia events
same,safety and tolerability (in words),"[2]; single doses up to 7.5 mg, up to 1.5 mg/day for 14 days",generally safe and well tolerated
same,safety and tolerability (in words),"[2]; up to 11 mg single dose, up to 5 mg/day for 14 days",safe and well tolerated
